Calls of active or inactive are those of the source.
Legend:
Aminopeptidase N = target: T1, Aminopeptidase N (Plasmodium falciparum FcB1/Columbia, UniProt O96935); experiment: malaria alanyl aminopeptidase activity blockers – biochemical, fluorogenic H-Leu-NHMec substrate, 1536-well (AID 1445); design: species or system Plasmodium falciparum 3D7, 3D7
T1 sequence (O96935 whole entry): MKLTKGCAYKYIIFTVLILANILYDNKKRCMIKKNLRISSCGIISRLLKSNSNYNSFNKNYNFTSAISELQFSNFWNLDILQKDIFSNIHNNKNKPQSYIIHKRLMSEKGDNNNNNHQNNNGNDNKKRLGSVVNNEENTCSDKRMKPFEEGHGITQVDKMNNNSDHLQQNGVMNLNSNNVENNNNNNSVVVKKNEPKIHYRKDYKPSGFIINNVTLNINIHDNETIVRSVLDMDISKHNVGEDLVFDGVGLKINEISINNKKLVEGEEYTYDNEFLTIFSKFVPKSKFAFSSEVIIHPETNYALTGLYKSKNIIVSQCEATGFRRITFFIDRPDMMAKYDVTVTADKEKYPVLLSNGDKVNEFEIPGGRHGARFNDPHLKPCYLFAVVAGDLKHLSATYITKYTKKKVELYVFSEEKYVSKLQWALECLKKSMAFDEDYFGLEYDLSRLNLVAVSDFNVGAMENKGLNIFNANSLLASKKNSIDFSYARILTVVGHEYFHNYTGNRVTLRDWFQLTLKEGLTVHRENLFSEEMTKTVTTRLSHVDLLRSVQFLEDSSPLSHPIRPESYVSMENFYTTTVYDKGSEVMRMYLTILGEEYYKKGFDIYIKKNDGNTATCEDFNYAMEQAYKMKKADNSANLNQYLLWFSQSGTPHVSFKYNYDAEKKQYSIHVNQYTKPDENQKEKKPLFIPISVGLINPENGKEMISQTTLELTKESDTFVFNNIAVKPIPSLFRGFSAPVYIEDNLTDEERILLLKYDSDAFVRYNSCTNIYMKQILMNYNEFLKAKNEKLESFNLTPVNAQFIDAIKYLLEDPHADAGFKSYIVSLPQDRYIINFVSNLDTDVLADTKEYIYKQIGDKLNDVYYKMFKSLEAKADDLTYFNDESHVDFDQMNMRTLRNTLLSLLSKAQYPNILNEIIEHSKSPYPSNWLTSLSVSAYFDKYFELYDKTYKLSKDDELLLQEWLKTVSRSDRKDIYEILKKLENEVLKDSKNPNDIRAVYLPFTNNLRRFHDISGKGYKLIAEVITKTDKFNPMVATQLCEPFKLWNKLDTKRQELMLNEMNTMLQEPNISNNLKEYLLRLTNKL

Cytochrome P450 3A4 = Cytochrome P450 3A4 (Homo sapiens, UniProt P08684); conditions: Potency;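 also: confirmatory qHTS run detecting inhibitors and substrates of CYP3A4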
Chain of Cytochrome P450 3A4 (P08684 whole entry): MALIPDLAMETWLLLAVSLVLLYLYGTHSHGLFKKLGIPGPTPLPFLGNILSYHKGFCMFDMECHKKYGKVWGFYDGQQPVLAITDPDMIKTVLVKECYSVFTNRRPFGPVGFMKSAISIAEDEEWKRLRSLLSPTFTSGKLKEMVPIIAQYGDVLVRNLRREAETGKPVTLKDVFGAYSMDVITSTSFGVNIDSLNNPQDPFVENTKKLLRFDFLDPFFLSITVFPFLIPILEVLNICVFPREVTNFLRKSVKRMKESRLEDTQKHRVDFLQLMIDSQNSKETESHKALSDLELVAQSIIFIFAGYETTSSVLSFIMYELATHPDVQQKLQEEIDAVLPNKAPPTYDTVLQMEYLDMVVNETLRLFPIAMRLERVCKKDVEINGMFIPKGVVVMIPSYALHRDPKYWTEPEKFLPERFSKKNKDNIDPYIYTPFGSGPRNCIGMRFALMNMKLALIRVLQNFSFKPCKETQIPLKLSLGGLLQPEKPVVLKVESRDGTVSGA

[1] = target: T2, Short transient receptor potential channel 4 (Mus musculus, UniProt Q9QUQ5); experiment: block of DAMGO-driven TRPC4 calcium entry – cell-based, HEK293 TRPC4/mu-opioid, Fluo-4 calcium, dose response (AID 434942); assay type: functional;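 also: potency of inhibitors blocking the TRPC4 calcium response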
T2 sequence (Q9QUQ5 whole entry): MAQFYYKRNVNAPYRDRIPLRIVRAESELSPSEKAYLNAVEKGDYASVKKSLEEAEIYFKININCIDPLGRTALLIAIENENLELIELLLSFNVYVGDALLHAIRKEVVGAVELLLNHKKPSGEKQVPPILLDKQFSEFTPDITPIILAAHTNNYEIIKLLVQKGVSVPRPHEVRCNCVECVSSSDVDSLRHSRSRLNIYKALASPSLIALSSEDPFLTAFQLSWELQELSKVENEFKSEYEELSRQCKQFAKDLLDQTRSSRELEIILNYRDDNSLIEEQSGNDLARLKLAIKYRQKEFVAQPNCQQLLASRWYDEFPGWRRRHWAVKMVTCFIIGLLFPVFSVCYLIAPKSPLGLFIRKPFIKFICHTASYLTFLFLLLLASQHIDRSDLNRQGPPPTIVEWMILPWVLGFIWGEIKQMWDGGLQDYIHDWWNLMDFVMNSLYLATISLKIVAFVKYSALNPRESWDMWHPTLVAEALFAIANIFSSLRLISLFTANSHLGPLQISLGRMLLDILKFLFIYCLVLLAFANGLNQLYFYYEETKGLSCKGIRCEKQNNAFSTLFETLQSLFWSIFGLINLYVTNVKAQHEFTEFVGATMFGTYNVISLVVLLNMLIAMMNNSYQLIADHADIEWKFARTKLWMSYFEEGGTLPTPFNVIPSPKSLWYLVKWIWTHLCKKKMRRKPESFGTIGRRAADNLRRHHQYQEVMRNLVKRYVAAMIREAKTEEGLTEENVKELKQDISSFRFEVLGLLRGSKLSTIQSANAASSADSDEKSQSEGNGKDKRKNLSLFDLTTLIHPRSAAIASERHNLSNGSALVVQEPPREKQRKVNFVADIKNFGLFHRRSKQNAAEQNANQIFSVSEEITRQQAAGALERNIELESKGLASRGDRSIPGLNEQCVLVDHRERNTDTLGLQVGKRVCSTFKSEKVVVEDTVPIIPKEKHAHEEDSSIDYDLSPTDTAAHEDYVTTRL

Leucine aminopeptidase = target: T3, Leucine aminopeptidase (Plasmodium falciparum 3D7, UniProt Q8IL11); experiment: P. falciparum M17LAP inhibitors, primary screen, biochemical, fluorogenic H-Leu-NHMec substrate, 1536-well (AID 1619); assay type: functional
T3 sequence (Q8IL11 whole entry): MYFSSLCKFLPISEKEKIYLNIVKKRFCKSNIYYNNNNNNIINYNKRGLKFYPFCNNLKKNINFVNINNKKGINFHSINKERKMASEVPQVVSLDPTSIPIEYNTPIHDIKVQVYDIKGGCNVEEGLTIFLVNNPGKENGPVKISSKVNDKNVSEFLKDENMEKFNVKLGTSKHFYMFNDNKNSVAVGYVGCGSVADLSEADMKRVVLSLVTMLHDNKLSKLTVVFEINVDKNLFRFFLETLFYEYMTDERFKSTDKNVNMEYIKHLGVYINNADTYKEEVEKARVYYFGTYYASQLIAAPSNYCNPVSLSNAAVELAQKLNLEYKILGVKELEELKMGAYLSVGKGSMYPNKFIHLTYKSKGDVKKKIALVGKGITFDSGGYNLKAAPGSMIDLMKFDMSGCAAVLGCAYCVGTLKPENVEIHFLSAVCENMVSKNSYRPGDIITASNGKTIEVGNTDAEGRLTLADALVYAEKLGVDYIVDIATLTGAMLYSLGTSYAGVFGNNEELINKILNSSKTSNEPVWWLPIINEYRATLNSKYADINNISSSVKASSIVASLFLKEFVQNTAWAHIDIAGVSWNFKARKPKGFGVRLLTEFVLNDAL

[2] = target: T2, Short transient receptor potential channel 4; experiment: calcium entry via TRPC4 opening agents – cell-based, HEK293 TRPC4/mu-opioid, Fluo-4 calcium, dose response (AID 434937); assay type: functional
[3] = target: DNA dC->dU-editing enzyme APOBEC-3A (Homo sapiens, UniProt P31941); experiment: Dose Response confirmation of small molecule APOBEC3A DNA Deaminase Inhibitors via a fluorescence-based single-stranded DNA deaminase assay. [Related pubchem assays (depositor defined):AID493011, AID493024]; assay type: functional
Chain of DNA dC->dU-editing enzyme APOBEC-3A (P31941 whole entry): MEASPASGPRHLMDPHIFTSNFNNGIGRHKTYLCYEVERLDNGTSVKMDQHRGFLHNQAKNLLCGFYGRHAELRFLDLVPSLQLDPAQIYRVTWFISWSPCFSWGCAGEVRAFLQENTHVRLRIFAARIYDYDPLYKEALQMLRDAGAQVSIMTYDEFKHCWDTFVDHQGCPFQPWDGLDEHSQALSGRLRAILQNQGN

[4] = target: DNA dC->dU-editing enzyme APOBEC-3G (Homo sapiens, UniProt Q9HC16); assay type: functional;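 also: Dose-response counterscreen measuring inhibition of APOBEC3G DNA deaminase activity, run while confirming APOBEC3A inhibitors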
Chain of DNA dC->dU-editing enzyme APOBEC-3G (Q9HC16 whole entry): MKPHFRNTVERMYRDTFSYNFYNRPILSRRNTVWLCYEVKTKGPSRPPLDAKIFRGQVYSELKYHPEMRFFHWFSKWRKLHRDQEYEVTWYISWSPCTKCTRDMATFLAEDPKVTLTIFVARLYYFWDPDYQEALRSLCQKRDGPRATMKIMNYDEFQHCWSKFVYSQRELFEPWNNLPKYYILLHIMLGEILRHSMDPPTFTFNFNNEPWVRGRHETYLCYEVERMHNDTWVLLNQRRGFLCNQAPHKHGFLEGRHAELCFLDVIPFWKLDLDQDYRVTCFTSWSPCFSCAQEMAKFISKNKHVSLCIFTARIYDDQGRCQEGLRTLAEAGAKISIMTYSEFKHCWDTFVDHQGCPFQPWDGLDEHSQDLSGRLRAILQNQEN

[5] = test system: Streptococcus sp. 'group A'; experiment: Streptococcus pyogenes SK(-)GAS viability under kanamycin – luminescence, BacTiterGlo, confirmation, counter-screen for streptokinase expression inhibitor project, dose response (AID 1900); assay type: functional, organism-based
Streptokinase A = target: T4, Streptokinase A (Streptococcus pyogenes serotype M1, UniProt P10520); experiment: viability-normalized secreted streptokinase activity reduction – plasminogen activation absorbance, OD405, dose response (AID 1914); assay type: functional, Streptococcus pyogenes M1 GAS;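 also: secreted streptokinase activity via plasminogen activation per viability signal from cell pellet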
T4 sequence (P10520 whole entry): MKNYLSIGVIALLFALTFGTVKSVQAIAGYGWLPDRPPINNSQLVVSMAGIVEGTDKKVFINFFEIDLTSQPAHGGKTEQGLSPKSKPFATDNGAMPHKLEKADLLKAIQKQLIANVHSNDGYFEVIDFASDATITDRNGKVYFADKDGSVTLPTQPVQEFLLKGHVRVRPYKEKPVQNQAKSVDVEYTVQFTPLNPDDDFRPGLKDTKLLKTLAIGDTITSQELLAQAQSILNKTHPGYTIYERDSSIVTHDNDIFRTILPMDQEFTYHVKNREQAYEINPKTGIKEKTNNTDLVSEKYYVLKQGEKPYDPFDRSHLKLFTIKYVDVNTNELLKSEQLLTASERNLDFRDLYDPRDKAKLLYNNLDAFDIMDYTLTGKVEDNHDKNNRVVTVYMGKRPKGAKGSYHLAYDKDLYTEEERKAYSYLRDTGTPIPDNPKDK

Streptococcus = experiment: GAS UMAA2166 growth inhibition – luminescence, BacTiterGlo, counter-screen for streptokinase expression inhibitor project, dose response (AID 1915); assay type: functional, organism-based;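 also: potency for reduction of bacterial viability or growth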
[6] = target: T5, Ubiquitin-conjugating enzyme E2 N (Homo sapiens, UniProt P61088); assay type: functional;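 also: Dose-response confirmation in a TR-FRET assay detecting UBC13-driven polyubiquitin chain formation, inhibition measured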
T5 sequence (P61088 whole entry): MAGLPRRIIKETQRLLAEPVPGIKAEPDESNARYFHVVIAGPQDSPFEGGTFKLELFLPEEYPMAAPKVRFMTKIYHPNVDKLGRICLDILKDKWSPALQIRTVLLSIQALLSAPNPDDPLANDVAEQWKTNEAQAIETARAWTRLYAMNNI

Nonstructural protein 1 = Nonstructural protein 1 (Influenza A virus, UniProt Q194T2); assay type: functional, Influenza A virus (A/California/07/2009(H1N1))
Chain of Nonstructural protein 1 (Q194T2 whole entry): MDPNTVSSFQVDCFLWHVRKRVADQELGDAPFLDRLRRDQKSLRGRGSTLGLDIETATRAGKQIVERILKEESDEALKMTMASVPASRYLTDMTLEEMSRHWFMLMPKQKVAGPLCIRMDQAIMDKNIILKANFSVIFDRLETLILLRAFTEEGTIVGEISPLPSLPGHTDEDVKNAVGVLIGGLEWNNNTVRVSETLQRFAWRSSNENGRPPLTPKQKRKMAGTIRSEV

[7] = target: T6, DNA repair protein RAD52 homolog (Homo sapiens, UniProt P43351); assay type: functional, biochemical
T6 sequence (P43351 whole entry): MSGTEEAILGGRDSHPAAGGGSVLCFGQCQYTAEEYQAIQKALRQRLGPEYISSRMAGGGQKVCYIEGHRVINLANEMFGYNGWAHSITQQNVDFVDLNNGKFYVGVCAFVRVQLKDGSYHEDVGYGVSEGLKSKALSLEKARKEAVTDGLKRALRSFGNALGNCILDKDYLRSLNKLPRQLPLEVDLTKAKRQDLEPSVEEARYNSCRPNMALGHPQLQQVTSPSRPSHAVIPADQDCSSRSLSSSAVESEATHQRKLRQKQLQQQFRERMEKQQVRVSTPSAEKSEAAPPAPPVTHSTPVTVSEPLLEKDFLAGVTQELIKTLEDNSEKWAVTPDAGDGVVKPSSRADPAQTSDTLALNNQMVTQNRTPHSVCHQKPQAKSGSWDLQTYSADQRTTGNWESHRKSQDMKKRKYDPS

[8] = viability of uninfected HEp-2 cells – cell-based, HTS, cytotoxicity control for RSV inhibitor project, dose response (AID 2410); assay type: functional; conditions: human respiratory syncytial virus
[9] = target: T7, Polyadenylate-binding protein 1 (Homo sapiens, UniProt P11940); experiment: MLLE binding blockers, Cy5 peptide tracer – biochemical, fluorescence polarization, Cy5-PAM2 peptide, secondary, miRNA deadenylation inhibitor project, dose response (AID 602260); assay type: functional; conditions: read-out: IC50_Mean
T7 sequence (P11940 whole entry, the tested form may be a part): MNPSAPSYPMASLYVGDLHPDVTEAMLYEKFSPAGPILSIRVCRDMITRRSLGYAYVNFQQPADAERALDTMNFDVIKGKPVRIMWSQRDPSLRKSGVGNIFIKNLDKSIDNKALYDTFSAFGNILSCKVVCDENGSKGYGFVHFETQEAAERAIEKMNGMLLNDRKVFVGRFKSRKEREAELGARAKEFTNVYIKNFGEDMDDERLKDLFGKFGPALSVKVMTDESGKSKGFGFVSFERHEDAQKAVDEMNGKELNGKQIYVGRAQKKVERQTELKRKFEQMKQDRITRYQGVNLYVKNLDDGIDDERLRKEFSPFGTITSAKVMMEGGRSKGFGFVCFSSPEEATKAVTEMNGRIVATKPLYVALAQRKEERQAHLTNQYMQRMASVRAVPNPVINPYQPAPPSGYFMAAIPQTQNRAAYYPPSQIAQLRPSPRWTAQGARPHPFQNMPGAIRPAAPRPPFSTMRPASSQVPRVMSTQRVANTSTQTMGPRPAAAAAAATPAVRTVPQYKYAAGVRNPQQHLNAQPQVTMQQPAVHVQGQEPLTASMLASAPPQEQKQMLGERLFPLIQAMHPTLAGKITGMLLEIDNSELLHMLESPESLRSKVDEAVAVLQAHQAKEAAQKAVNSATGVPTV

[10] = target: T7, Polyadenylate-binding protein 1; experiment: MLLE domain peptide-binding blockers, IC50 – biochemical, fluorescence polarization, FITC-PAM2 peptide, dose response (AID 602259); assay type: functional; conditions: read-out: IC50_Mean

Cc1ccc(-c2n[nH]c3c2C(c2ccccc2)N(c2ccc(C(=O)O)cc2)C3=O)cc1 (centres undefined)
IC50 (Aminopeptidase N): 30.4 µM (active)

Cc1nc(NCc2ccccc2)c2nc(-c3ccccc3)n(CCN(C)C)c2n1
AC50 (Cytochrome P450 3A4): 12.6 µM (inconclusive)

C[C@@H]1C=C[C@](Cc2ccccc2)(C(=O)NCCCNc2ncc(C(F)(F)F)cc2Cl)N1C(=O)c1ccccc1
AC50 (Cytochrome P450 3A4): 3.98 µM (inconclusive)

Cc1ncsc1CCOC(=O)c1cccc([N+](=O)[O-])c1
EC50 [1]: 1.68 µM (active)

CCOc1ccc(NC(=O)COC(=O)c2cccnc2)cc1
IC50 (Leucine aminopeptidase): 27.4 µM (active)

COc1ccc(OC)c(NC(=O)C2C3C=CC(C3)C2C(=O)NCc2ccccn2)c1 (centres undefined)
IC50 (Aminopeptidase N): 89.5 µM (active)

Cc1c(C(=O)N(Cc2cccs2)C2CCS(=O)(=O)C2)oc2ccccc12 (centres undefined)
EC50 [1]: 1.68 µM (active) | EC50 [2]: 2.11 µM (active)

Cc1cc(S(=O)(=O)Nc2cccc(O)c2)c(C)s1
IC50 (Leucine aminopeptidase): 14.6 µM (active)

COC(=O)C1=C(C)N(Cc2ccccc2)C(NCCCCO)=N[C@H]1c1ccccc1
IC50 [3]: 2.27 µM (active) | IC50 [4]: 5.13 µM (active)

Cc1cc(/C=C2\SC(=O)N(C)C2=O)c(C)n1-c1ccc(S(N)(=O)=O)cc1
IC50 [3]: 3.12 µM (active) | IC50 [4]: 4.58 µM (active)

CC1(C)CC(N2CCOCC2)=CC(=[N+]2CCOCC2)C1
IC50 [3]: 2.59 µM (active) | IC50 [4]: 2.26 µM (active)

COC(=O)[C@@H]1C[C@@]2(O)[C@@H](O)[C@@H](O)[C@@H](O)C[C@H]2N1CC1CCCCC1
AC50 (Cytochrome P450 3A4): 12.6 µM (inconclusive)

CCN1CCN(c2ccc(S(=O)(=O)N3CCCCC3)cc2NC(=O)Cc2ccccc2)CC1
IC50 [3]: 3.97 µM (active) | IC50 [4]: 5.57 µM (active)

CSC1=NC2=C(CCCC2)C2(CCCCC2)N1
EC50 [1]: 5.96 µM (active)

O=C(O)c1ccc2c(c1)C1C=CCC1C(c1cc3c(cc1Br)OCO3)N2 (centres undefined)
IC50 (Aminopeptidase N): 11 µM (active)

CCC1=C2CC[C@H]3C(=O)N(c4ccccc4)C(=O)[C@H]3[C@H]2[C@@]2(C)C(=O)N(CC(=O)OC)C(=O)N2C1=O
AC50 (Cytochrome P450 3A4): 15.8 µM (inconclusive)

O=C(CN1CCCCC1)N=Nc1c(O)[nH]c2ccccc12
EC50 [1]: 2.99 µM (active)

CN(C)CCCN=C(S)NCC(c1ccc(Cl)cc1Cl)c1c[nH]c2ccccc12 (centres undefined)
EC50 [5]: 5 µM (active) | EC50 (Streptokinase A): > 150 µM (not active) | EC50 (Streptococcus): 15.4 µM (active) | IC50 [6]: > 20 µM (inactive) | IC50 (Nonstructural protein 1): 65.8 µM (active) | AC50 [7]: 6.45 µM (active)

Cn1cccc1/C=C1\SC(=S)N(NC(=O)c2ccccc2O)C1=O
IC50 (Aminopeptidase N): 44.6 µM (active)

Cc1ccc(S(=O)(=O)CCSc2cccc(C(=O)Nc3ccccc3C(=O)O)c2)cc1
IC50 (Leucine aminopeptidase): 9.59 µM (active) | CC50 [8]: 13.5 µM (active) | IC50 (Aminopeptidase N): 34.3 µM (active) | IC50 [9]: > 66 µM (inactive) | IC50 [10]: > 66 µM (inactive)

— ChEMBL document CHEMBL1201862, “PubChem BioAssay data set” (2004)
